Laboratory results from patent US20120225848A1, “Antagonists of GABA-B Receptors to Enhance Neuronal Function, Learning and Memory” (priority 2009, published 2012).
pIC50: −log10 of the molar value.

How the values were obtained:
mRNAs for NGF and BDNF = details: Heese et al., 2000; cited from earlier work
[1] = test system: dentate gyrus (DG) of hippocampal slices; assay: Paired-pulse depression of the population spike (feedback inhibition) in DG; assay type: cell-based, mouse; details: 1 μM, interstimulus interval 30 ms
Description: Recording of evoked field potentials. A slice was transferred into the recording submerged chamber and superfused with ACSF at a constant rate of 2.5 ml/min at 32° C. Recording electrodes were made of borosilicate glass capillaries (1B150F, World Precision Instruments, Sarasota, Fla.) and were filled with 2M NaCl (resistance 0.3-0.5 MΩ). Monopolar stimulating electrodes were maid of Pt/Ir wires with diameter 25.4 μm (PTT0110, World Precision Instruments, Sarasota, Fla.) and had 100-μm-long exposed tips. […]
The amplitude of the population spike was measured as follows: 1) a line was drawn at the base of the population spike connecting the first and second peaks of the field response; 2) a second line was drawn at the peak of the population spike (i.e. at the peak of the downward deflection); 3) at the peak of the spike, a line was drawn vertically between these two lines to give the amplitude of the population spike. The magnitude of the field excitatory postsynaptic potential (fEPSP) was measured as the initial slope of the linear part of the fEPSP (latencies 0.1-0.9 ms). […]
Effects of GABAB antagonists on pro-epileptic properties in Ts65Dn DG. […] We evaluated the effect of GABAB antagonists on feedback inhibition by measuring paired-pulse depression of the population spike amplitude (PS2/PS1). […]

[2] = test system: dentate gyrus (DG) of hippocampal slices; assay: LTP of evoked field potentials in dentate gyrus of hippocampal slices; assay type: cell-based, mouse
[3] = test system: dentate gyrus (DG) of hippocampal slices; assay type: cell-based, mouse; details: 1 μM
GABAB receptor = GABAB receptor (Homo sapiens, UniProt Q9UBS5); details: 1 μM; baclofen 5-10 μM; cited from earlier work
[4] = molecular target: T1, Kir3.2-containing potassium channels (Homo sapiens, UniProt P48051); details: Kobayashi et al., 2004; read-out: IC50 for block of Kir3.2 channels; cited from earlier work
T1 sequence (P48051 1-423): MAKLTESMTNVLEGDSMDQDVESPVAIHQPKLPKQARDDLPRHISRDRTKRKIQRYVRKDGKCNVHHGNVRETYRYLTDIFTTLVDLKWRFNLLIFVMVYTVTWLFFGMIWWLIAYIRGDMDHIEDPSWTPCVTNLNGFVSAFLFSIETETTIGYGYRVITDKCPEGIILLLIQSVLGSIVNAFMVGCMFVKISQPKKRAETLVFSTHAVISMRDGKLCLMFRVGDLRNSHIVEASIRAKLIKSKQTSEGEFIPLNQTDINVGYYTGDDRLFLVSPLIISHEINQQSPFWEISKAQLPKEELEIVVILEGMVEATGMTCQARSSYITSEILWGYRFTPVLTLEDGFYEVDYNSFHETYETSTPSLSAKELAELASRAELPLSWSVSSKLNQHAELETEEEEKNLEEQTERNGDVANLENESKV

2N and Ts65Dn mice [5] = assay: Novel object recognition with 24 h delay; assay type: in vivo, mouse; details: 0.5 mg/kg i.p. daily, 3 weeks
Description: (§1) Behavioral testing. All mice were exposed to the same series of behavioral tests starting at 2-2.5 months of age. Each mouse was handled for 10 min, twice a day, during the 7 days that preceded testing and for 3 days in between tests. Tests for spontaneous locomotor activity and open field were performed before the drug, during the acute (1 week), and during the chronic (3 weeks) phases of the drug administration. Novel object recognition task with a 24 hours delay was performed during the chronic phase (3 weeks) of the drug administration. All behavioral testing took place during the light cycle between 7:00 a.m. and 7:00 p.m. and was performed at room temperature (22° C.). On the day of testing, the mice were left in their home cages in the experimental room for 2 hours for habituation. To minimize olfactory cues from the previous trial, each apparatus was thoroughly cleaned with 10% ethanol after each animal. CGP55845 (0.5 mg/kg) or equivalent volume of saline was injected intraperitoneally once a day during 3 weeks. Body weight was measured weekly. The body weight was lower in Ts65Dn than in 2N mice, and it was not affected by the treatment (Supplementary FIG. S6). All behavioral tests and procedures were performed by operators who were blind to the genotypes and drug treatment.
Novel object recognition. The Bevins and Besheer protocol (Bevins and Besheer, 2006) for two sample objects with one environment was used to study learning and memory with 24 hours delays in 2N and Ts65Dn mice. Before testing, mice were habituated in a black Plexiglas chamber (31×24×27 cm) during 10 min for 2 consecutive days under dim ambient light conditions. Activity of mice during the object recognition task was recorded with a video camera. Two objects (A and B) consistent with height and volume, but different in shape and appearance were used in this test. […] The amount of time spent exploring each object (nose sniffing and head orientation within <1.0 cm) was recorded and evaluated by an operator, who was blind to both the phenotype and the treatment. […]

[6] = test system: dentate gyrus (DG) of hippocampal slices; assay: Spontaneous ictal bursts in high-potassium model of epilepsy in hippocampal slices; assay type: cell-based, mouse; details: 1 μM, extracellular potassium 7.5 mM
Description: To evaluate more directly the potential effects of GABAB antagonists on epileptic properties of DG neural circuits, we examined spontaneous ictal bursts in hippocampal slices provoked by an increase in extracellular potassium. […] These changes were greater in Ts65Dn than in 2N slices (p<0.05). […] While the mechanism of the effect is yet to be refined, reduced electrochemical potential for potassium ions and the enhancement of feedback inhibition may both play a role.

2N and Ts65Dn mice [7] = assay: Open field activity; assay type: in vivo, mouse; details: 0.5 mg/kg i.p. daily, acute (1 week) and chronic (3 weeks)
Description: Behavioral testing. All mice were exposed to the same series of behavioral tests starting at 2-2.5 months of age. Each mouse was handled for 10 min, twice a day, during the 7 days that preceded testing and for 3 days in between tests. Tests for spontaneous locomotor activity and open field were performed before the drug, during the acute (1 week), and during the chronic (3 weeks) phases of the drug administration. Novel object recognition task with a 24 hours delay was performed during the chronic phase (3 weeks) of the drug administration. All behavioral testing took place during the light cycle between 7:00 a.m. and 7:00 p.m. and was performed at room temperature (22° C.). […] Body weight was measured weekly. […]
Open field activity. Open field activity was recorded with a video camera in the arena of white squared box (76×76×50 cm) and analyzed with an automated videotracking system EthoVision Pro 3.1 (Noldus Information Technology, Wageningen, The Netherlands). Mice were placed in the center of the open field arena under dim ambient light conditions and activity was monitored for 10 min in a single trial. […] Results were averaged for total distance traveled, number of entries and the time spent in the pre-determined areas (the center of the arena, the periphery, i.e. area extending 12 cm from the center, and the border, which included the four corners).

[8] = molecular target: presynaptic GABAB receptors; details: Pozza et al., 1999; read-out: IC50 for presynaptic receptors in hippocampal slices; cited from earlier work
[9] = molecular target: postsynaptic GABAB receptors (Homo sapiens, UniProt Q9UBS5); details: Pozza et al., 1999; read-out: IC50 for postsynaptic receptors in hippocampal slices; cited from earlier work
2N and Ts65Dn mice [10] = assay: Spontaneous locomotor activity in activity box; assay type: in vivo, mouse; details: 0.5 mg/kg i.p. daily, acute (1 week) and chronic (3 weeks)
Description: as §1, with “The body weight was lower in Ts65Dn than in 2N mice, and it was not affected by the treatment (Supplementary FIG. S6). All behavioral tests and procedures were performed by operators who were blind to the genotypes and drug treatment.” left out
Spontaneous locomotor activity. Spontaneous locomotor activity was monitored using square Plexiglas activity chambers (43.2×43.2×20 cm) and activity monitor software (Med Associates Activity Monitor, version 5.93.773). […] Distance moved, velocity, resting time, and times spent in pre-defined areas of the arena were recorded. […]

[11] = Body weight during treatment; assay type: in vivo, mouse; details: 0.5 mg/kg i.p. once a day during 3 weeks; 2N and Ts65Dn mice
Description: as §1

Ts65Dn hippocampal LTP = details: in vitro system; Kleschevnikov 2004; cited from earlier work

Sequence of GABAB receptor (Q9UBS5 20-961): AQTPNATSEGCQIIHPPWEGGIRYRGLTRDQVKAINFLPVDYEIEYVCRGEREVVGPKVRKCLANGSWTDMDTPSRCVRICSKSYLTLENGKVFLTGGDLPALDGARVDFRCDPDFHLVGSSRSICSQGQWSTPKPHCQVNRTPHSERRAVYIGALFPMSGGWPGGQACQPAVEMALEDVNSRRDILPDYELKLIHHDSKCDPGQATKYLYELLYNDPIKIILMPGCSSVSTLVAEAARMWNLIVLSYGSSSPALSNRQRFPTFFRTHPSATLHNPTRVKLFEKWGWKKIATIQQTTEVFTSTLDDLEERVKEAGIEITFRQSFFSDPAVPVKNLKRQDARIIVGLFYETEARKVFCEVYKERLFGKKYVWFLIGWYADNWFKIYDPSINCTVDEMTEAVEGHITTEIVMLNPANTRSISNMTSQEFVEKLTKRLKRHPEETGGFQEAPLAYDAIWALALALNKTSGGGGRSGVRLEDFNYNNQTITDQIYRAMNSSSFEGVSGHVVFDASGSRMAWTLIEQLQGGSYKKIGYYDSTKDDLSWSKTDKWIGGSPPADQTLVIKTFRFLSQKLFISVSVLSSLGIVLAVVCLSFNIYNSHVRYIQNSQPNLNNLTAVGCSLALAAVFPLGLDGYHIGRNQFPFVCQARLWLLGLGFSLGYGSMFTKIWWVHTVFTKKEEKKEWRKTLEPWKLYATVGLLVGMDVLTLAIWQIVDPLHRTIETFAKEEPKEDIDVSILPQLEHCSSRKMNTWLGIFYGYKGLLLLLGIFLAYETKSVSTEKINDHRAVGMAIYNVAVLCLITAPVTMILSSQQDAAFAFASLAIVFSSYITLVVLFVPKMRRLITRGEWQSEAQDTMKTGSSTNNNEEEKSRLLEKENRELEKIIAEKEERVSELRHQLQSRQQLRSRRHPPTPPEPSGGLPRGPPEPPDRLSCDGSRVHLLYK
Sequence of GABAB receptor (O75899 42-941 partner): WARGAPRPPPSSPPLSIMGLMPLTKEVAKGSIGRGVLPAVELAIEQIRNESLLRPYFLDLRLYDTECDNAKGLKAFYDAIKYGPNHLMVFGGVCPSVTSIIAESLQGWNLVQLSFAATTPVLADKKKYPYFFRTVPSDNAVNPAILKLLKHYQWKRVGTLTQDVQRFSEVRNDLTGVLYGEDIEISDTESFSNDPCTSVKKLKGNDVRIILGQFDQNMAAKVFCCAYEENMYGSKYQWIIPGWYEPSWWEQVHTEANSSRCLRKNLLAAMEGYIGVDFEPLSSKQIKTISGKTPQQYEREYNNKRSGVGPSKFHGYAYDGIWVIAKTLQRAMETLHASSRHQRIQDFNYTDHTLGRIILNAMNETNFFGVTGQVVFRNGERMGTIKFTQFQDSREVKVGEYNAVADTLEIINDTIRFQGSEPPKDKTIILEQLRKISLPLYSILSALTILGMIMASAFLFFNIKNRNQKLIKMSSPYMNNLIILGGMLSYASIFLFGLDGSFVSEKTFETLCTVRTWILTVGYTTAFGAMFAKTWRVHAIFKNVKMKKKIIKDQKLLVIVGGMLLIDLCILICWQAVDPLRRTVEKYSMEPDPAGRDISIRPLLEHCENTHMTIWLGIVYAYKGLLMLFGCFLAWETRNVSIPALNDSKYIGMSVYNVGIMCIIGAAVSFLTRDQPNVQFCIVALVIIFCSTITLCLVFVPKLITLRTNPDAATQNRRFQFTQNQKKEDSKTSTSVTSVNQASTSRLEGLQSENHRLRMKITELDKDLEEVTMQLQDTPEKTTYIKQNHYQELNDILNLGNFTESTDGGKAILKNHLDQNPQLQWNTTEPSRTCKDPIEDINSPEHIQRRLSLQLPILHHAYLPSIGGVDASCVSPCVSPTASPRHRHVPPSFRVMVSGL
Sequence of presynaptic GABAB receptors (Q9UBS5 20-961): as the sequence (Q9UBS5 20-961) above
Sequence of presynaptic GABAB receptors (O75899 42-941 partner): as the sequence (O75899 42-941 partner) above
Sequence of postsynaptic GABAB receptors (Q9UBS5 20-961): as the sequence (Q9UBS5 20-961) above
Sequence of postsynaptic GABAB receptors (O75899 42-941 partner): as the sequence (O75899 42-941 partner) above

In the case of `CCCCP(=O)(O)CCCN` [CGP36742], the “levels of mRNAs for NGF and BDNF” value (mRNAs for NGF and BDNF) is given as “increased”.
In the case of `CCOC(OCC)P(=O)(O)CCCNCc1ccc(Cl)c(Cl)c1` [CGP52432], the PS2/PS1 ratio ([1]; 2N slices, baseline 1.09±0.18) was 0.93±0.25, the PS2/PS1 ratio ([1]; Ts65Dn slices, baseline 0.71±0.16) was 0.59±0.17 and the “effect on LTP” value ([2]; 1.0 μM, Ts65Dn slices) was “enhanced LTP in the Ts65Dn DG”. The “NMDA receptor-mediated component of the tetanus-evoked field responses” value [3] was “enhanced the NMDA receptor-mediated responses”, the “NMDA receptor-mediated component of the tetanus-evoked responses” value [3] was “restored to 2N levels” and the tetanus-evoked field responses [3] was “significantly increased”.
In the case of `C[C@H](NC[C@H](O)CP(=O)(O)Cc1ccccc1)c1ccc(Cl)c(Cl)c1.Cl` [CGP 55845A], the “baclofen-induced postsynaptic hyperpolarization and depression of evoked IPSPs and EPSPs” value (GABAB receptor) is given as “blocks”.
In the case of `CNCCC(Oc1ccc(C(F)(F)F)cc1)c1ccccc1` (stereo not drawn) [fluoxetine], the “effect on LTP” value ([2]; 10 μM, Ts65Dn DG) is given as “enhanced LTP in the Ts65Dn DG” and the pIC50 [4] is given as about 5.00.
In the case of CGP55845, the “exploration habits (total time of exploration of objects)” value (2N and Ts65Dn mice [5]; 2N and Ts65Dn mice) was “no effect”, the “improvement of memory in novel object recognition” value (2N and Ts65Dn mice [5]; 2N mice) was “observed only in Ts65Dn mice” and the discrimination index (2N and Ts65Dn mice [5]; Ts65Dn mice vs Ts65Dn vehicle control, p<0.05) was “significantly higher”. The “frequency of spontaneous ictal bursts” value ([6]; 2N and Ts65Dn DG, p=0.8) was “did not affect”, the “amplitude of burst-associated field potentials” value ([6]; change greater in Ts65Dn than 2N, p<0.01) was “significantly reduced” and the “open field parameters (velocity, distance, time in regions)” value (2N and Ts65Dn mice [7]) was “no significant effect”. The “effect on LTP” value ([2]; 0.1 μM, Ts65Dn slices) was “enhanced LTP in Ts65Dn”, the “effect on LTP” value ([2]; 1.0 μM, 2N slices) was “enhanced LTP in both Ts65Dn and 2N slices” and the “effect on LTP” value ([2]; 1.0 μM, Ts65Dn slices) was “enhanced LTP in both Ts65Dn and 2N slices”. For the same molecule, the pIC50 [8] was 6.13, the pIC50 [9] was 6.96 and the spontaneous locomotor activity (2N and Ts65Dn mice [10]) was “did not affect”. For the same molecule, the body weight [11] was “not affected”.
In the case of picrotoxin, the “deficits in Ts65Dn hippocampal LTP” value (Ts65Dn hippocampal LTP) is listed as “reverse”.
